# In PubChem BioAssay AID2060912 (Molecular Pharmacology Branch, DTP, NCI, 2025):
# Tested on: HUVEC/MSC spheroids viability
# Test: Human HUVEC/MSC cell line growth inhibition [KRAS2];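 as to viability, T/C: percent of DMSO vehicle control luminescence so 100% = untreated viability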
# Conditions: for IC50: curve of first compound; for viability, T/C: stronger effect = lower value
# Method in brief: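 Spheroids of pooled-donor HUVEC and hMSC (passage ≤5) without tumour cells were treated with KRAS-pathway inhibitors alone and combined with targeted agents. Top concentration was at or near clinical Cmax, or 10 microM when Cmax was unknown, descending in half-log steps.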
# [1] = second compound 0.00949 µM, first compound 0.0316 µM
# [2] = second compound 0.00949 µM, first compound 0.1 µM
# [3] = second compound 0.00949 µM, first compound 0.316 µM
# [4] = second compound 0.00949 µM, first compound 1 µM
# [5] = second compound 0.00949 µM, first compound 3.16 µM
# [6] = second compound 0.00949 µM, first compound 10 µM
# [7] = second compound 0.03 µM, first compound 0.0316 µM
# [8] = second compound 0.03 µM, first compound 0.1 µM
# [9] = second compound 0.03 µM, first compound 0.316 µM
# [10] = second compound 0.03 µM, first compound 1 µM
# [11] = second compound 0.03 µM, first compound 3.16 µM
# [12] = second compound 0.03 µM, first compound 10 µM
# [13] = second compound 0.0949 µM, first compound 0.0316 µM
# [14] = second compound 0.0949 µM, first compound 0.1 µM
# [15] = second compound 0.0949 µM, first compound 0.316 µM
# [16] = second compound 0.0949 µM, first compound 1 µM
# [17] = second compound 0.0949 µM, first compound 3.16 µM
# [18] = second compound 0.0949 µM, first compound 10 µM
# [19] = second compound 0.3 µM, first compound 0.0316 µM
# [20] = second compound 0.3 µM, first compound 0.1 µM
# [21] = second compound 0.3 µM, first compound 0.316 µM
# [22] = second compound 0.3 µM, first compound 1 µM
# [23] = second compound 0.3 µM, first compound 3.16 µM
# [24] = second compound 0.3 µM, first compound 10 µM
# [25] = second compound 0.949 µM, first compound 0.0316 µM
# [26] = second compound 0.949 µM, first compound 0.1 µM
# [27] = second compound 0.949 µM, first compound 0.316 µM
# [28] = second compound 0.949 µM, first compound 1 µM
# [29] = second compound 0.949 µM, first compound 3.16 µM
# [30] = second compound 0.949 µM, first compound 10 µM
# [31] = second compound 3 µM, first compound 0.0316 µM
# [32] = second compound 3 µM, first compound 0.1 µM
# [33] = second compound 3 µM, first compound 0.316 µM
# [34] = second compound 3 µM, first compound 1 µM
# [35] = second compound 3 µM, first compound 3.16 µM
# [36] = second compound 3 µM, first compound 10 µM
smiles,measurement,setting,value
CC(=O)Nc1cccc(-n2c(=O)n(C3CC3)c(=O)c3c(Nc4ccc(I)cc4F)n(C)c(=O)c(C)c32)c1 + C=CC(=O)N1CCN(c2nc(OCC3CCCN3C)nc3c2CCN(c2cccc4cccc(C)c24)C3)CC1CC#N,IC50,second compound 0.00949 µM,0.0189 µM
same,IC50,second compound 0.03 µM,0.0173 µM
same,IC50,second compound 0.0949 µM,0.0154 µM
same,IC50,second compound 0.3 µM,0.0134 µM
same,IC50,second compound 0.949 µM,0.0153 µM
same,IC50,second compound 3 µM,0.00185 µM
same,"viability, T/C","second compound 0.00949 µM, first compound 94.9 pM",95.3%
same,"viability, T/C","second compound 0.00949 µM, first compound 0.0003 µM",129%
same,"viability, T/C","second compound 0.00949 µM, first compound 0.000949 µM",125%
same,"viability, T/C","second compound 0.00949 µM, first compound 0.003 µM",116%
same,"viability, T/C","second compound 0.00949 µM, first compound 0.00949 µM",90.5%
same,"viability, T/C","second compound 0.00949 µM, first compound 0.03 µM",23%
same,"viability, T/C","second compound 0.03 µM, first compound 94.9 pM",104%
same,"viability, T/C","second compound 0.03 µM, first compound 0.0003 µM",116%
same,"viability, T/C","second compound 0.03 µM, first compound 0.000949 µM",112%
same,"viability, T/C","second compound 0.03 µM, first compound 0.003 µM",115%
same,"viability, T/C","second compound 0.03 µM, first compound 0.00949 µM",83.8%
same,"viability, T/C","second compound 0.03 µM, first compound 0.03 µM",18.9%
same,"viability, T/C","second compound 0.0949 µM, first compound 94.9 pM",97.7%
same,"viability, T/C","second compound 0.0949 µM, first compound 0.0003 µM",130%
same,"viability, T/C","second compound 0.0949 µM, first compound 0.000949 µM",133%
same,"viability, T/C","second compound 0.0949 µM, first compound 0.003 µM",94.9%
same,"viability, T/C","second compound 0.0949 µM, first compound 0.00949 µM",71.5%
same,"viability, T/C","second compound 0.0949 µM, first compound 0.03 µM",23.5%
same,"viability, T/C","second compound 0.3 µM, first compound 94.9 pM",67%
same,"viability, T/C","second compound 0.3 µM, first compound 0.0003 µM",98.3%
same,"viability, T/C","second compound 0.3 µM, first compound 0.000949 µM",114%
same,"viability, T/C","second compound 0.3 µM, first compound 0.003 µM",97.8%
same,"viability, T/C","second compound 0.3 µM, first compound 0.00949 µM",63.6%
same,"viability, T/C","second compound 0.3 µM, first compound 0.03 µM",18.6%
same,"viability, T/C","second compound 0.949 µM, first compound 94.9 pM",84.9%
same,"viability, T/C","second compound 0.949 µM, first compound 0.0003 µM",91.8%
same,"viability, T/C","second compound 0.949 µM, first compound 0.000949 µM",108%
same,"viability, T/C","second compound 0.949 µM, first compound 0.003 µM",86.7%
same,"viability, T/C","second compound 0.949 µM, first compound 0.00949 µM",73.4%
same,"viability, T/C","second compound 0.949 µM, first compound 0.03 µM",17.2%
same,"viability, T/C","second compound 3 µM, first compound 94.9 pM",96.2%
same,"viability, T/C","second compound 3 µM, first compound 0.0003 µM",105%
same,"viability, T/C","second compound 3 µM, first compound 0.000949 µM",73.8%
same,"viability, T/C","second compound 3 µM, first compound 0.003 µM",32.6%
same,"viability, T/C","second compound 3 µM, first compound 0.00949 µM",2.04%
same,"viability, T/C","second compound 3 µM, first compound 0.03 µM",1.27%
COc1cc(Nc2ncc3c(n2)-c2ccc(Cl)cc2C(c2c(F)cccc2OC)=NC3)ccc1C(=O)O + C=CC(=O)N1CCN(c2nc(OCC3CCCN3C)nc3c2CCN(c2cccc4cccc(C)c24)C3)CC1CC#N,IC50,second compound 0.00949 µM,> 10 µM
same,IC50,second compound 0.03 µM,> 10 µM
same,IC50,second compound 0.0949 µM,> 10 µM
same,IC50,second compound 0.3 µM,> 10 µM
same,IC50,second compound 0.949 µM,7.03 µM
same,IC50,second compound 3 µM,5.92 µM
same,"viability, T/C",[1],93.2%
same,"viability, T/C",[2],88%
same,"viability, T/C",[3],87.1%
same,"viability, T/C",[4],83.8%
same,"viability, T/C",[5],105%
same,"viability, T/C",[6],66.6%
same,"viability, T/C",[7],77.3%
same,"viability, T/C",[8],86.9%
same,"viability, T/C",[9],86%
same,"viability, T/C",[10],82.9%
same,"viability, T/C",[11],102%
same,"viability, T/C",[12],68.2%
same,"viability, T/C",[13],80.4%
same,"viability, T/C",[14],108%
same,"viability, T/C",[15],98.5%
same,"viability, T/C",[16],74.7%
same,"viability, T/C",[17],81.6%
same,"viability, T/C",[18],61.2%
same,"viability, T/C",[19],79.8%
same,"viability, T/C",[20],79.5%
same,"viability, T/C",[21],76.9%
same,"viability, T/C",[22],91.1%
same,"viability, T/C",[23],87.5%
same,"viability, T/C",[24],69%
same,"viability, T/C",[25],59.9%
same,"viability, T/C",[26],78.9%
same,"viability, T/C",[27],92.3%
same,"viability, T/C",[28],75.8%
same,"viability, T/C",[29],73.2%
same,"viability, T/C",[30],39.7%
same,"viability, T/C",[31],93.4%
same,"viability, T/C",[32],88.5%
same,"viability, T/C",[33],96.4%
same,"viability, T/C",[34],102%
same,"viability, T/C",[35],73.2%
same,"viability, T/C",[36],30.7%
COc1cc2nccc(Oc3ccc(NC(=O)C4(C(=O)Nc5ccc(F)cc5)CC4)cc3)c2cc1OC + C=CC(=O)N1CCN(c2nc(OCC3CCCN3C)nc3c2CCN(c2cccc4cccc(C)c24)C3)CC1CC#N,IC50,second compound 0.00949 µM,4.77 µM
same,IC50,second compound 0.03 µM,5.94 µM
same,IC50,second compound 0.0949 µM,8.74 µM
same,IC50,second compound 0.3 µM,7.29 µM
same,IC50,second compound 0.949 µM,> 10 µM
same,IC50,second compound 3 µM,3.8 µM
same,"viability, T/C",[1],88.1%
same,"viability, T/C",[2],102%
same,"viability, T/C",[3],71.1%
same,"viability, T/C",[4],65.7%
same,"viability, T/C",[5],76.6%
same,"viability, T/C",[6],22%
same,"viability, T/C",[7],70.9%
same,"viability, T/C",[8],80.5%
same,"viability, T/C",[9],77.1%
same,"viability, T/C",[10],59.8%
same,"viability, T/C",[11],77.8%
same,"viability, T/C",[12],30.8%
same,"viability, T/C",[13],82.5%
same,"viability, T/C",[14],78.6%
same,"viability, T/C",[15],74%
same,"viability, T/C",[16],77.4%
same,"viability, T/C",[17],88.1%
same,"viability, T/C",[18],46%
same,"viability, T/C",[19],61.5%
same,"viability, T/C",[20],80.8%
same,"viability, T/C",[21],85.7%
same,"viability, T/C",[22],63.9%
same,"viability, T/C",[23],86.6%
same,"viability, T/C",[24],40.4%
same,"viability, T/C",[25],61.9%
same,"viability, T/C",[26],71.8%
same,"viability, T/C",[27],73.3%
same,"viability, T/C",[28],83%
same,"viability, T/C",[29],75.9%
same,"viability, T/C",[30],38.5%
same,"viability, T/C",[31],75.9%
same,"viability, T/C",[32],80.4%
same,"viability, T/C",[33],92.4%
same,"viability, T/C",[34],84.1%
same,"viability, T/C",[35],59.4%
same,"viability, T/C",[36],0.35%
